This note sets out measurements from patent publication US12122763B2, “Substituted piperidines for androgen receptor degradation” (UBIX THERAPEUTICS, INC., priority 2020, dated 2024).

Each structure is given as a SMILES string.

What all share (assay type): cell-based
Assay [1] addresses T1, Androgen Receptor (AR) protein (Homo sapiens, UniProt P10275, T878A).
T1 construct: endogenous in cells; host or cells: LNCaP
In words: Androgen Receptor (AR) protein degradation assay in LNCaP cells, western blotting. To be noted: 20 h; for inhibition at 0.01 µM: 0.01 μM compound; for inhibition at 0.1 µM: 0.1 μM compound; for inhibition at 1 µM: 1 μM compound; for inhibition at 10 µM: 10 μM compound. In short, it runs like this:
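LNCaP prostate cancer cells were cultured 3 days, then treated with compound for 20 h. Lysates in 1% SDS buffer were normalised by BCA, and 8 μg protein was run on 4–12% Bis-Tris gels. AR was immunoblotted with chemiluminescence, using GAPDH/β-actin as loading controls.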
(In general: Immunoblotting shows a protein as a band on a membrane.)

A further assay has as its target T877A AR mutant (Homo sapiens, UniProt P10275, T878A). In words: Degradation of AR mutant T877A. The settings on record: at a concentration of 100 nM. An excerpt: On the other hand, the compounds of the present invention have excellent degradation activity against AR mutants (T877A, M896V, F876L, H874Y, L702H, W741C, etc.). Since resistance to existing anti-androgen receptor drugs can be caused by AR mutation, the excellent AR mutant-degrading activity of the compounds of the present invention can help overcome resistance to existing drugs.

A further assay has as its target T2, AR-V7 (Homo sapiens, UniProt P10275).
T2 sequence (P10275 1-644 isoform P10275-3): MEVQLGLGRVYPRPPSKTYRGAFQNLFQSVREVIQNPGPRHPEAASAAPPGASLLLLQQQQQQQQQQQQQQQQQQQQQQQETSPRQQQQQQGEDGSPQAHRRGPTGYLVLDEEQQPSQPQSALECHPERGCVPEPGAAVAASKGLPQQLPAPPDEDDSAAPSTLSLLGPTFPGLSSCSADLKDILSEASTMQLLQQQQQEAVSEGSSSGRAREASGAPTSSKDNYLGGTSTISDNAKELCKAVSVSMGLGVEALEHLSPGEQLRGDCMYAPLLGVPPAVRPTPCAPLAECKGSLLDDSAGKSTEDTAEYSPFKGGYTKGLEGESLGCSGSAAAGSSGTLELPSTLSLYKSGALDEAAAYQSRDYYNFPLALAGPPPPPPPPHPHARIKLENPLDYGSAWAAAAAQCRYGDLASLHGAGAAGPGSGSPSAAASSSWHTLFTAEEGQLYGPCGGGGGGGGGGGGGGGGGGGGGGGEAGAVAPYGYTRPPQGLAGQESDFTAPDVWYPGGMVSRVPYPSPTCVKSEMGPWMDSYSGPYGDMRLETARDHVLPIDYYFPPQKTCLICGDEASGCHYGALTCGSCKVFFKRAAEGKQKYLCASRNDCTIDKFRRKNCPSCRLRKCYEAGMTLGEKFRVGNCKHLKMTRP
Put plainly: Reduction of expression of AR splicing variant AR-V7. To be noted: at a concentration of 100 nM. From the text: In addition, another mechanism by which resistance to existing treatments occurs is the expression of AR splicing variants (eg, AR-V7). The compounds of the present invention are excellent in reducing the expression of these variants (eg, AR-V7), and thus have a better anti-proliferative effect in AR-V7 positive prostate cancer cells. For example, the compounds of Examples 6 and 169 of the present disclosure inhibited the expression of AR-V7 by 87% and 48%, respectively, at a concentration of 100 nM.

T1 sequence (P10275 whole entry T878A): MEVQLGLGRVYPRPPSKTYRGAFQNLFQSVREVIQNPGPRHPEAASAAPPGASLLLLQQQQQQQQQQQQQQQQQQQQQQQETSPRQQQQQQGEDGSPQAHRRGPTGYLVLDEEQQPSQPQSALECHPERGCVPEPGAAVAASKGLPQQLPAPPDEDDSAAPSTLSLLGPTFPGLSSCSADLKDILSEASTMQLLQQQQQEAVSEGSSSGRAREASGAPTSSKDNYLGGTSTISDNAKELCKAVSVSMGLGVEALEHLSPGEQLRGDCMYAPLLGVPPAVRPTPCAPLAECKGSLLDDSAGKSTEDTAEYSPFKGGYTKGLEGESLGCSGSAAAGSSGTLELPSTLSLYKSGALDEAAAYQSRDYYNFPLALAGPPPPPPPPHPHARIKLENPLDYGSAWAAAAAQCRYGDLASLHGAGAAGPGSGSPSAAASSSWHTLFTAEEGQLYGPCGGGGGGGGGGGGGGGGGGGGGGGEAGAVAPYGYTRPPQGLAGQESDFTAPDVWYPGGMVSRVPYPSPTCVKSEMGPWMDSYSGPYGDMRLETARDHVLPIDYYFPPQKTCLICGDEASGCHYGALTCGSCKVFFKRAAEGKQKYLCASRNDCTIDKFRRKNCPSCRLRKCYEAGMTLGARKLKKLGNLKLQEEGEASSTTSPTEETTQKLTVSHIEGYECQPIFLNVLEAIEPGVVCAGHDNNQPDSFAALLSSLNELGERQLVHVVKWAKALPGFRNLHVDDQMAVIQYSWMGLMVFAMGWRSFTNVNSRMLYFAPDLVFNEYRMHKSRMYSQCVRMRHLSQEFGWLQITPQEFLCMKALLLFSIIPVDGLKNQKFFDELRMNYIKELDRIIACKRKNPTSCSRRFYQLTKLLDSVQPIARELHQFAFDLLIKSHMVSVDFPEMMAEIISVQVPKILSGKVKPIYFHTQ
T1 sequence (Q96SW2 whole entry partner): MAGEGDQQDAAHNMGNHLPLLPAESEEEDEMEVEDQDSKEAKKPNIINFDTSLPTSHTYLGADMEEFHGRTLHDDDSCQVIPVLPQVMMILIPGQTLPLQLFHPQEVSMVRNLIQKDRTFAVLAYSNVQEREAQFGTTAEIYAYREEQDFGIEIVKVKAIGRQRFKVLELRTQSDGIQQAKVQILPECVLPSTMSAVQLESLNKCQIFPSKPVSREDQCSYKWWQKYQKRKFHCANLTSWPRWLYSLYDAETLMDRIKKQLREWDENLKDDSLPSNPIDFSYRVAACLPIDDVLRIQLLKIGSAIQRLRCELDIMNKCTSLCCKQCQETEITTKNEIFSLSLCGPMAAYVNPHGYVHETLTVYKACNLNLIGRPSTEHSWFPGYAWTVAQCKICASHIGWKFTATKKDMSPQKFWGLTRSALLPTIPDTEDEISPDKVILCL
T877A AR mutant, sequence (P10275 whole entry T878A): as the sequence (P10275 whole entry T878A) above
T877A AR mutant, sequence (Q96SW2 whole entry partner): as the sequence (Q96SW2 whole entry partner) above

For `N#Cc1ccc(N2CCC(C(=O)Nc3ccc(N4CCC(CN5CCN(CC6CCN(c7ccc8c(c7)C(=O)N(C7CCC(=O)NC7=O)C8=O)CC6)CC5)CC4)cn3)CC2)cc1C(F)(F)F` (stereo not drawn) [Example 6, 1-(4-cyano-3-(trifluoromethyl)phenyl)-N-(5-(4-((4-((1-(2-(2,6-dioxopiperidin-3-yl)-1,3-dioxoisoindolin-5-yl)piperidin-4-yl)methyl)piperazin-1-yl)methyl)piperidin-1-yl)pyridin-2-yl)piperidine-4-carboxamide], in assay [1], the inhibition – broadly, the drop in the measured response relative to a control, in per cent – at 0.01 µM turned out to be 83%; 0.1 µM produced 99% inhibition; at 1 µM the inhibition was 99%; the inhibition at 10 µM came to 97%. Besides, on T877A AR mutant, the “degradation activity for the T877A AR mutant” value is 73%. For the same compound, the “inhibited the expression of AR-V7” value against AR-V7 came to 87%.
In assay [1], `N#Cc1ccc(N2CCC(C(=O)Nc3ccc(OC4CCN(CC5CCN(c6ccc7c(c6)C(=O)N(C6CCC(=O)NC6=O)C7=O)CC5)CC4)cn3)CC2)cc1C(F)(F)F` (stereo not drawn) [Example 169, 1-(4-cyano-3-(trifluoromethyl)phenyl)-N-(5-((1-((1-(2-(2,6-dioxopiperidin-3-yl)-1,3-dioxoisoindolin-5-yl)piperidin-4-yl)methyl)piperidin-4-yl)oxy)pyridin-2-yl)piperidine-4-carboxamide] showed an inhibition at 0.01 µM of 85%, an inhibition at 0.1 µM of 99% and an inhibition at 1 µM of 99%. For the same compound, at AR-V7, the “inhibited the expression of AR-V7” value stood at 48%.
In assay [1], `N#Cc1ccc(N2CCC(C(=O)Nc3ccc(N4CCC(CN5CCN(C(=O)CNc6ccc7c(c6)C(=O)N(C6CCC(=O)NC6=O)C7=O)CC5)CC4)cn3)CC2)cc1C(F)(F)F` (stereo not drawn) [Example 5, 1-(4-cyano-3-(trifluoromethyl)phenyl)-N-(5-(4-((4-((2-(2,6-dioxopiperidin-3-yl)-1,3-dioxoisoindolin-5-yl)glycyl)piperazin-1-yl)methyl)piperidin-1-yl)pyridin-2-yl)piperidine-4-carboxamide] came in with an inhibition at 0.01 µM of 82%, an inhibition at 0.1 µM of 97%, an inhibition at 1 µM of 97% and an inhibition at 10 µM of 97%.
In assay [1], `CN(CCN1CCN(c2ccc3c(c2)C(=O)N(C2CCC(=O)NC2=O)C3=O)CC1)CC1CCN(c2ccc(NC(=O)C3CCN(c4ccc(C#N)c(C(F)(F)F)c4)CC3)nc2)CC1` (stereo not drawn) [Example 110, 1-(4-cyano-3-(trifluoromethyl)phenyl)-N-(5-(4-(((2-(4-(2-(2,6-dioxopiperidin-3-yl)-1,3-dioxoisoindolin-5-yl)piperazin-1-yl)ethyl)(methyl)amino)methyl)piperidin-1-yl)pyridin-2-yl)piperidine-4-carboxamide] had an inhibition at 0.01 µM of 56%, an inhibition at 0.1 µM of 89% and an inhibition at 1 µM of 88%.
In assay [1], `N#Cc1ccc(N2CCC(C(=O)Nc3ccc(OC4CCN(CC5CCN(c6ccc7c(c6)C(=O)N(C6CCC(=O)NC6=O)C7=O)CC5)CC4)nn3)CC2)cc1C(F)(F)F` (stereo not drawn) [Example 187, 1-(4-cyano-3-(trifluoromethyl)phenyl)-N-(6-((1-((1-(2-(2,6-dioxopiperidin-3-yl)-1,3-dioxoisoindolin-5-yl)piperidin-4-yl)methyl)piperidin-4-yl)oxy)pyridazin-3-yl)piperidine-4-carboxamide] had an inhibition at 0.01 µM of 63% and an inhibition at 0.1 µM of 90%.
In assay [1], `N#Cc1ccc(N2CCC(C(=O)Nc3ccc(N4CCC(CN5CC6(CCN(c7ccc8c(c7)C(=O)N(C7CCC(=O)NC7=O)C8=O)CC6)C5)CC4)cn3)CC2)cc1C(F)(F)F` (stereo not drawn) [Example 49, 1-(4-cyano-3-(trifluoromethyl)phenyl)-N-(5-(4-((7-(2-(2,6-dioxopiperidin-3-yl)-1,3-dioxoisoindolin-5-yl)-2,7-diazaspiro[3.5]nonan-2-yl)methyl)piperidin-1-yl)pyridin-2-yl)piperidine-4-carboxamide] yielded an inhibition at 0.01 µM of 68%, an inhibition at 0.1 µM of 98%, an inhibition at 1 µM of 99% and an inhibition at 10 µM of 99%. In addition, the “degradation activity for the T877A AR mutant” value on T877A AR mutant is listed as 46%.
In the case of `N#Cc1ncc(N2CCC(C(=O)Nc3ccc(N4CCC(CN5CCN(C6CCN(c7ccc8c(c7)CN(C7CCC(=O)NC7=O)C8=O)CC6)CC5)CC4)cn3)CC2)cc1C(F)(F)F` (stereo not drawn) [Example 142, 1-(6-cyano-5-(trifluoromethyl)pyridin-3-yl)-N-(5-(4-((4-(1-(2-(2,6-dioxopiperidin-3-yl)-1-oxoisoindolin-5-yl)piperidin-4-yl)piperazin-1-yl)methyl)piperidin-1-yl)pyridin-2-yl)piperidine-4-carboxamide], in assay [1], testing at 0.01 µM gave an inhibition of 55%, the inhibition at 0.1 µM is 87% and the inhibition at 1 µM turned out to be 83%.
Regarding `N#Cc1ccc(N2CCC(C(=O)Nc3ccc(N4CC5(CCN(C[C@H]6CCN(c7ccc8c(c7)C(=O)N(C7CCC(=O)NC7=O)C8=O)C6)CC5)C4)cn3)CC2)cc1C(F)(F)F` (stereo partly drawn) [Example 125, 1-(4-cyano-3-(trifluoromethyl)phenyl)-N-(5-(7-(((3R)-1-(2-(2,6-dioxopiperidin-3-yl)-1,3-dioxoisoindolin-5-yl)pyrrolidin-3-yl)methyl)-2,7-diazaspiro[3.5]nonan-2-yl)pyridin-2-yl)piperidine-4-carboxamide], in assay [1], 0.01 µM produced 25% inhibition, the inhibition at 0.1 µM was found to be 84% and 1 µM produced 92% inhibition.
On to `C[C@@H]1CN(CC2CN(c3ccc4c(c3)C(=O)N(C3CCC(=O)NC3=O)C4=O)C2)CCN1CC1CCN(c2ccc(NC(=O)C3CCN(c4ccc(C#N)c(C(F)(F)F)c4)CC3)nc2)CC1` (stereo partly drawn) [Example 24, 1-(4-cyano-3-(trifluoromethyl)phenyl)-N-(5-(4-(((2R)-4-((1-(2-(2,6-dioxopiperidin-3-yl)-1,3-dioxoisoindolin-5-yl)azetidin-3-yl)methyl)-2-methylpiperazin-1-yl)methyl)piperidin-1-yl)pyridin-2-yl)piperidine-4-carboxamide], for which, in assay [1], testing at 0.01 µM gave an inhibition of 53%, at 0.1 µM the inhibition was 96% and the inhibition at 1 µM worked out at 95%.
For `N#Cc1ccc(N2CCC(C(=O)Nc3ccc(N4CCC5(CC4)CN(CC4CCN(c6ccc7c(c6)C(=O)N(C6CCC(=O)NC6=O)C7=O)CC4)C5)cn3)CC2)cc1C(F)(F)F` (stereo not drawn) [Example 127, 1-(4-cyano-3-(trifluoromethyl)phenyl)-N-(5-(2-((1-(2-(2,6-dioxopiperidin-3-yl)-1,3-dioxoisoindolin-5-yl)piperidin-4-yl)methyl)-2,7-diazaspiro[3.5]nonan-7-yl)pyridin-2-yl)piperidine-4-carboxamide] the same measures were 34%, 52% and 66%.
